# Laboratory results: patent US20220073554A1, “LINCOSAMIDE ANTIBIOTICS AND USES THEREOF” (President and Fellows of Harvard College, priority 2017, published 2022)
# Tested on: E. faecalis ATCC 29212
# Assay: MIC against E. faecalis ATCC 29212
# Type: cell-based
# Conditions: Enterococcus faecalis, ATCC29212, read-out: MIC
row,SMILES,MIC [µg/mL]
1,CSC1O[C@H]([C@H](NC(=O)[C@H]2NC[C@@H]3C=C(c4ccc(F)cc4)CCO[C@@H]23)[C@H](C)Cl)C(O)[C@@H](O)[C@H]1O (stereo partly shown) [FSA-507052],1
2,CSC1O[C@H]([C@H](NC(=O)[C@H]2NC[C@@H]3CC(c4ccc(C(F)(F)F)cc4)=CCO[C@H]32)[C@H](C)Cl)C(O)[C@@H](O)[C@H]1O (stereo partly shown) [FSA-507060],8
3,CSC1O[C@H]([C@H](NC(=O)[C@H]2NC[C@@H]3CC(c4ccccc4)=CCO[C@H]32)[C@H](C)Cl)C(O)[C@@H](O)[C@H]1O (stereo partly shown) [FSA-507056],2

# Tested on: E. coli ATCC 25922
# Assay: MIC against E. coli ATCC 25922
# Type: cell-based
# Conditions: Escherichia coli, ATCC25922
row,SMILES,MIC [µg/mL]
1,CSC1O[C@H]([C@H](NC(=O)[C@H]2NC[C@@H]3CC(c4ccccc4)=CCO[C@H]32)[C@H](C)Cl)C(O)[C@@H](O)[C@H]1O (stereo partly shown) [FSA-507056],> 32

# Tested on: P. aeruginosa MMX Mex parent strain
# Assay: MIC against P. aeruginosa MMX Mex parent strain
# Type: cell-based
# Conditions: Pseudomonas aeruginosa
row,SMILES,MIC [µg/mL]
1,CSC1O[C@H]([C@H](NC(=O)[C@H]2NC[C@@H]3C=C(c4ccc(F)cc4)CCO[C@@H]23)[C@H](C)Cl)C(O)[C@@H](O)[C@H]1O (stereo partly shown) [FSA-507052],> 32
2,CSC1O[C@H]([C@H](NC(=O)[C@H]2NC[C@@H]3CC(c4ccc(C(F)(F)F)cc4)=CCO[C@H]32)[C@H](C)Cl)C(O)[C@@H](O)[C@H]1O (stereo partly shown) [FSA-507060],> 64
3,CSC1O[C@H]([C@H](NC(=O)[C@H]2NC[C@@H]3CC(c4ccccc4)=CCO[C@H]32)[C@H](C)Cl)C(O)[C@@H](O)[C@H]1O (stereo partly shown) [FSA-507056],> 32

# Tested on: S. aureus MMX 3035 cErmA
# Assay: MIC against S. aureus MMX 3035 cErmA
# Type: cell-based
# Conditions: Staphylococcus aureus, MMX3035CERMA
row,SMILES,MIC [µg/mL]
1,CSC1O[C@H]([C@H](NC(=O)[C@H]2NC[C@@H]3C=C(c4ccc(F)cc4)CCO[C@@H]23)[C@H](C)Cl)C(O)[C@@H](O)[C@H]1O (stereo partly shown) [FSA-507052],> 32
2,CSC1O[C@H]([C@H](NC(=O)[C@H]2NC[C@@H]3CC(c4ccccc4)=CCO[C@H]32)[C@H](C)Cl)C(O)[C@@H](O)[C@H]1O (stereo partly shown) [FSA-507056],> 32

# Tested on: S. pneumoniae MMX 3028 cErmB
# Assay: MIC against S. pneumoniae MMX 3028 cErmB
# Type: cell-based
# Conditions: Streptococcus pneumoniae, MMX3028CERMB
row,SMILES,MIC [µg/mL]
1,CSC1O[C@H]([C@H](NC(=O)[C@H]2NC[C@@H]3C=C(c4ccc(F)cc4)CCO[C@@H]23)[C@H](C)Cl)C(O)[C@@H](O)[C@H]1O (stereo partly shown) [FSA-507052],> 32
2,CSC1O[C@H]([C@H](NC(=O)[C@H]2NC[C@@H]3CC(c4ccccc4)=CCO[C@H]32)[C@H](C)Cl)C(O)[C@@H](O)[C@H]1O (stereo partly shown) [FSA-507056],> 32

# Tested on: S. aureus Micromyx USA 300
# Assay: MIC against S. aureus Micromyx USA 300
# Type: cell-based
# Conditions: Staphylococcus aureus, USA300; S. aureus Micromyx USA 300; read-out: MIC
row,SMILES,MIC [µg/mL]
1,CSC1O[C@H]([C@H](NC(=O)[C@H]2NC[C@@H]3C=C(c4ccc(F)cc4)CCO[C@@H]23)[C@H](C)Cl)C(O)[C@@H](O)[C@H]1O (stereo partly shown) [FSA-507052],0.5
2,CSC1O[C@H]([C@H](NC(=O)[C@H]2NC[C@@H]3CC(c4ccc(C(F)(F)F)cc4)=CCO[C@H]32)[C@H](C)Cl)C(O)[C@@H](O)[C@H]1O (stereo partly shown) [FSA-507060],0.12
3,CSC1O[C@H]([C@H](NC(=O)[C@H]2NC[C@@H]3CC(c4ccccc4)=CCO[C@H]32)[C@H](C)Cl)C(O)[C@@H](O)[C@H]1O (stereo partly shown) [FSA-507056],0.5

# Tested on: P. aeruginosa ATCC 27853
# Assay: MIC against P. aeruginosa ATCC 27853
# Type: cell-based
# Conditions: Pseudomonas aeruginosa, ATCC27853
row,SMILES,MIC [µg/mL]
1,CSC1O[C@H]([C@H](NC(=O)[C@H]2NC[C@@H]3C=C(c4ccc(F)cc4)CCO[C@@H]23)[C@H](C)Cl)C(O)[C@@H](O)[C@H]1O (stereo partly shown) [FSA-507052],> 32
2,CSC1O[C@H]([C@H](NC(=O)[C@H]2NC[C@@H]3CC(c4ccc(C(F)(F)F)cc4)=CCO[C@H]32)[C@H](C)Cl)C(O)[C@@H](O)[C@H]1O (stereo partly shown) [FSA-507060],> 64
3,CSC1O[C@H]([C@H](NC(=O)[C@H]2NC[C@@H]3CC(c4ccccc4)=CCO[C@H]32)[C@H](C)Cl)C(O)[C@@H](O)[C@H]1O (stereo partly shown) [FSA-507056],> 32

# Tested on: E. coli ATCC 15922
# Assay: MIC against E. coli ATCC 15922
# Type: cell-based
# Conditions: Escherichia coli, ATCC15922
row,SMILES,MIC [µg/mL]
1,CSC1O[C@H]([C@H](NC(=O)[C@H]2NC[C@@H]3C=C(c4ccc(F)cc4)CCO[C@@H]23)[C@H](C)Cl)C(O)[C@@H](O)[C@H]1O (stereo partly shown) [FSA-507052],> 32

# Tested on: P. aeruginosa MMX 3476 Δmex
# Assay: MIC against P. aeruginosa MMX 3476 Δmex
# Type: cell-based
# Conditions: Pseudomonas aeruginosa
row,SMILES,MIC [µg/mL]
1,CSC1O[C@H]([C@H](NC(=O)[C@H]2NC[C@@H]3C=C(c4ccc(F)cc4)CCO[C@@H]23)[C@H](C)Cl)C(O)[C@@H](O)[C@H]1O (stereo partly shown) [FSA-507052],> 32
2,CSC1O[C@H]([C@H](NC(=O)[C@H]2NC[C@@H]3CC(c4ccc(C(F)(F)F)cc4)=CCO[C@H]32)[C@H](C)Cl)C(O)[C@@H](O)[C@H]1O (stereo partly shown) [FSA-507060],> 64
3,CSC1O[C@H]([C@H](NC(=O)[C@H]2NC[C@@H]3CC(c4ccccc4)=CCO[C@H]32)[C@H](C)Cl)C(O)[C@@H](O)[C@H]1O (stereo partly shown) [FSA-507056],> 32

# Tested on: S. aureus BAA 977 iErmA
# Assay: MIC against S. aureus BAA 977 iErmA
# Type: cell-based
# Conditions: Staphylococcus aureus, BAA977
row,SMILES,MIC [µg/mL]
1,CSC1O[C@H]([C@H](NC(=O)[C@H]2NC[C@@H]3C=C(c4ccc(F)cc4)CCO[C@@H]23)[C@H](C)Cl)C(O)[C@@H](O)[C@H]1O (stereo partly shown) [FSA-507052],2
2,CSC1O[C@H]([C@H](NC(=O)[C@H]2NC[C@@H]3CC(c4ccc(C(F)(F)F)cc4)=CCO[C@H]32)[C@H](C)Cl)C(O)[C@@H](O)[C@H]1O (stereo partly shown) [FSA-507060],1
3,CSC1O[C@H]([C@H](NC(=O)[C@H]2NC[C@@H]3CC(c4ccccc4)=CCO[C@H]32)[C@H](C)Cl)C(O)[C@@H](O)[C@H]1O (stereo partly shown) [FSA-507056],1

# Tested on: E. faecalis MMX 847 Macrolide-Resistant
# Assay: MIC against E. faecalis MMX 847 Macrolide-Resistant
# Type: cell-based
# Conditions: Enterococcus faecalis
row,SMILES,MIC [µg/mL]
1,CSC1O[C@H]([C@H](NC(=O)[C@H]2NC[C@@H]3C=C(c4ccc(F)cc4)CCO[C@@H]23)[C@H](C)Cl)C(O)[C@@H](O)[C@H]1O (stereo partly shown) [FSA-507052],> 32
2,CSC1O[C@H]([C@H](NC(=O)[C@H]2NC[C@@H]3CC(c4ccccc4)=CCO[C@H]32)[C@H](C)Cl)C(O)[C@@H](O)[C@H]1O (stereo partly shown) [FSA-507056],> 32

# Tested on: E. coli MMX 0121 ΔTolC
# Assay: MIC against E. coli MMX 0121 ΔTolC
# Type: cell-based
# Conditions: Escherichia coli
row,SMILES,MIC [µg/mL]
1,CSC1O[C@H]([C@H](NC(=O)[C@H]2NC[C@@H]3C=C(c4ccc(F)cc4)CCO[C@@H]23)[C@H](C)Cl)C(O)[C@@H](O)[C@H]1O (stereo partly shown) [FSA-507052],> 32
2,CSC1O[C@H]([C@H](NC(=O)[C@H]2NC[C@@H]3CC(c4ccccc4)=CCO[C@H]32)[C@H](C)Cl)C(O)[C@@H](O)[C@H]1O (stereo partly shown) [FSA-507056],> 32

# Tested on: S. pyogenes MMX 946 Macrolide-Resistant
# Assay: MIC against S. pyogenes MMX 946 Macrolide-Resistant
# Type: cell-based
# Conditions: Streptococcus pyogenes
row,SMILES,MIC [µg/mL]
1,CSC1O[C@H]([C@H](NC(=O)[C@H]2NC[C@@H]3C=C(c4ccc(F)cc4)CCO[C@@H]23)[C@H](C)Cl)C(O)[C@@H](O)[C@H]1O (stereo partly shown) [FSA-507052],> 32
2,CSC1O[C@H]([C@H](NC(=O)[C@H]2NC[C@@H]3CC(c4ccccc4)=CCO[C@H]32)[C@H](C)Cl)C(O)[C@@H](O)[C@H]1O (stereo partly shown) [FSA-507056],> 32

# Tested on: S. aureus ATCC 29213
# Assay: MIC against S. aureus ATCC 29213
# Type: cell-based
# Conditions: Staphylococcus aureus, ATCC29213, S. aureus ATCC 29213; read-out: MIC
row,SMILES,MIC [µg/mL]
1,CSC1O[C@H]([C@H](NC(=O)[C@H]2NC[C@@H]3C=C(c4ccc(F)cc4)CCO[C@@H]23)[C@H](C)Cl)C(O)[C@@H](O)[C@H]1O (stereo partly shown) [FSA-507052],2
2,CSC1O[C@H]([C@H](NC(=O)[C@H]2NC[C@@H]3CC(c4ccc(C(F)(F)F)cc4)=CCO[C@H]32)[C@H](C)Cl)C(O)[C@@H](O)[C@H]1O (stereo partly shown) [FSA-507060],2
3,CSC1O[C@H]([C@H](NC(=O)[C@H]2NC[C@@H]3CC(c4ccccc4)=CCO[C@H]32)[C@H](C)Cl)C(O)[C@@H](O)[C@H]1O (stereo partly shown) [FSA-507056],1

# Tested on: S. pneumoniae ATCC 49619
# Assay: MIC against S. pneumoniae ATCC 49619
# Type: cell-based
# Conditions: Streptococcus pneumoniae, ATCC49619; S. pneumoniae ATCC 49619; read-out: MIC
row,SMILES,MIC [µg/mL]
1,CSC1O[C@H]([C@H](NC(=O)[C@H]2NC[C@@H]3CC(c4ccc(C(F)(F)F)cc4)=CCO[C@H]32)[C@H](C)Cl)C(O)[C@@H](O)[C@H]1O (stereo partly shown) [FSA-507060],0.5

# Tested on: H. influenzae ATCC 49247
# Assay: MIC against H. influenzae ATCC 49247
# Type: cell-based
# Conditions: Haemophilus influenzae, ATCC49247
row,SMILES,MIC [µg/mL]
1,CSC1O[C@H]([C@H](NC(=O)[C@H]2NC[C@@H]3C=C(c4ccc(F)cc4)CCO[C@@H]23)[C@H](C)Cl)C(O)[C@@H](O)[C@H]1O (stereo partly shown) [FSA-507052],> 32
2,CSC1O[C@H]([C@H](NC(=O)[C@H]2NC[C@@H]3CC(c4ccccc4)=CCO[C@H]32)[C@H](C)Cl)C(O)[C@@H](O)[C@H]1O (stereo partly shown) [FSA-507056],> 32

# Tested on: E. coli MMX TolC parent strain
# Assay: MIC against E. coli MMX TolC parent strain
# Type: cell-based
# Conditions: Escherichia coli
row,SMILES,MIC [µg/mL]
1,CSC1O[C@H]([C@H](NC(=O)[C@H]2NC[C@@H]3C=C(c4ccc(F)cc4)CCO[C@@H]23)[C@H](C)Cl)C(O)[C@@H](O)[C@H]1O (stereo partly shown) [FSA-507052],> 32
2,CSC1O[C@H]([C@H](NC(=O)[C@H]2NC[C@@H]3CC(c4ccccc4)=CCO[C@H]32)[C@H](C)Cl)C(O)[C@@H](O)[C@H]1O (stereo partly shown) [FSA-507056],> 32

# Tested on: B. fragilis ATCC 25285
# Assay: MIC against B. fragilis ATCC 25285
# Type: cell-based
# Conditions: Bacteroides fragilis, ATCC25285
row,SMILES,MIC [µg/mL]
1,CSC1O[C@H]([C@H](NC(=O)[C@H]2NC[C@@H]3C=C(c4ccc(F)cc4)CCO[C@@H]23)[C@H](C)Cl)C(O)[C@@H](O)[C@H]1O (stereo partly shown) [FSA-507052],> 32
2,CSC1O[C@H]([C@H](NC(=O)[C@H]2NC[C@@H]3CC(c4ccccc4)=CCO[C@H]32)[C@H](C)Cl)C(O)[C@@H](O)[C@H]1O (stereo partly shown) [FSA-507056],> 32
